Columns and labels:
Assay type in all cases: in vivo, Sprague-Dawley rats
[1] = test system: periostin, vimentin expression in renal cortex; assay: Real time quantitative PCR (and immunoblotting) of markers in renal cortex of L-NAME rat model; conditions: for periostin mRNA up-regulation in kidney (RT-qPCR): rats, versus baseline
Procedure: Male Sprague-Dawley rats, weighing 250 g, were maintained on a normal-salt diet and had free access to chow and tap water. NO synthesis was inhibited by L-NAME (orally, 15 mg·kg-1·day-1). […] When proteinuria exceeded 1 g/mmol creatinine (after 5 or 6 weeks), a group of animals was killed to allow estimations of renal hemodynamics and morphological parameters just before the beginning of therapy (LN 6w group, n=10). The remaining animals were divided into two subgroups for an additional experimental period of 4 weeks: in the first subgroup, L-NAME was given alone (LN 10w group, n=12); in the second subgroup treatment was accompanied by the administration of an AT1 receptor antagonist (Losartan, orally 30 mg·kg-1·day-1, Merck Sharp and Dohme-Chibret). At the end of Losartan treatment, we separated the animals of the second group in two subgroups: animals with normal creatininemia below 50 μmol/l (LN reg n=14) and animals with a creatininemia above 70 μmol/l (LN no reg n=15). The doses of the drugs were based on pilot experiments and previously published studies. Control animals were sacrificed at 6 and 10 week. Since control animals gave similar results for all measured parameters, pooled data are presented (C group, n=8). Others animals received Losartan during 4 weeks as additional control group (LOS group, n=3). All protocols and treatments were performed with the approval of the French government ethics committee. We extracted RNA from the renal cortex and the abdominal aorta using TRIzol solution (Life Technologies BRL, Gaithersburg, Md.). RNA quality was checked by measuring the ratio of optical densities at 260 and 280 nm and residual genomic DNA was removed by DNase I treatment for 30 min at 37° C. (Fermentas). We used reverse transcription with Revert Aid H minus First Strand DNA Synthesis kit (Fermentas) to convert 1 μg RNA into cDNA, which was then amplified by PCR using a LightCycler 480 (Roche Diagnostic) using SYBR Green (Fast Start DNA Master SYBRGreen I; Roche Applied Science, Roche Diagnostic), specific primers for POST, Col3A1, ESel, Vimentin, VCAM-1 and hypoxanthine-guanine phosphoribosyltransferase (HPRT) as housekeeping gene under the following conditions: 95° C. for 5 min, and 45 cycles at 95° C. for 15 s and 60° C. for 15 s, then 72° C. for 15 s. Specific primers were designed by Universal Probe Library system (UPL, Roche Applied Science). To normalize the Q-PCR results we used Roche LightCycler 2.0 software (Roche Diagnostic). We expressed results as 2-[…], where Cp is the cycle threshold number. We analyzed dissociation curves after each run for each amplicon to access the specificity of quantification when using SYBR Green. 25 μg of protein extracts obtained by RIPA buffer lysis of renal cortex were fractionated by SDS-PAGE NuPAGE 4/12% gels (Invitrogen) under reducing conditions using an XCell SureLockTM Mini-Cell (NuPAGE, Invitrogen, San Diego, Calif., USA) as described by the manufacturer and transferred onto a nitrocellulose membrane (Immobilon-P, Millipore, Billerica, Mass., USA) prior to detection of the POST (Biovendor) or β-actin (Imgenex, Clinisciences, France) protein with a specific rabbit polyclonal primary Ab (dilution 1/1000 and 1/5000 respectively) and a peroxidase-labelled IgG anti-rabbit secondary Ab (dilution 1/4000). The membrane was detected by enhanced chemiluminescence (ECL)-plus kit (Amersham Biosciences, Piscataway, N.J., USA) on autoradiography films (Fuji).

[2] = test system: Hypertension-Induced Renal Disease Rat Model (L-NAME); assay: Urinary protein excretion and plasma creatinine in L-NAME rat model
Procedure: (§1) Male Sprague-Dawley rats, weighing 250 g, were maintained on a normal-salt diet and had free access to chow and tap water. NO synthesis was inhibited by L-NAME (orally, 15 mg·kg-1·day-1). […] When proteinuria exceeded 1 g/mmol creatinine (after 5 or 6 weeks), a group of animals was killed to allow estimations of renal hemodynamics and morphological parameters just before the beginning of therapy (LN 6w group, n=10). The remaining animals were divided into two subgroups for an additional experimental period of 4 weeks: in the first subgroup, L-NAME was given alone (LN 10w group, n=12); in the second subgroup treatment was accompanied by the administration of an AT1 receptor antagonist (Losartan, orally 30 mg·kg-1·day-1, Merck Sharp and Dohme-Chibret). At the end of Losartan treatment, we separated the animals of the second group in two subgroups: animals with normal creatininemia below 50 μmol/l (LN reg n=14) and animals with a creatininemia above 70 μmol/l (LN no reg n=15). The doses of the drugs were based on pilot experiments and previously published studies. Control animals were sacrificed at 6 and 10 week. Since control animals gave similar results for all measured parameters, pooled data are presented (C group, n=8). Others animals received Losartan during 4 weeks as additional control group (LOS group, n=3). All protocols and treatments were performed with the approval of the French government ethics committee. Urine samples were collected for a 4-h period. Urinary protein concentration was normalized to creatinine concentration, and values were expressed as grams protein per millimole creatinine. Blood samples were withdrawn on the last day of the study, and plasma creatinine (nmol/l) was measured by automated Jaffe's method.

[3] = test system: Hypertension-Induced Renal Disease Rat Model (L-NAME); assay: Renal hemodynamics (arterial pressure, renal blood flow) in L-NAME hypertension-induced renal disease rat model; conditions: for MAP (mean arterial pressure): L-NAME orally 15 mg/kg/day
Procedure: as §1, with “committee.” for “committee. Urine samples were collected for a 4-h period. Urinary protein concentration was normalized to creatinine concentration, and values were expressed as grams protein per millimole creatinine. Blood samples were withdrawn on the last day of the study, and plasma creatinine (nmol/l) was measured by automated Jaffe's method.”
After anesthesia by pentobarbital sodium (50-60 mg/kg body wt ip, Nembutal, Abbott, Chicago, Ill.), animals were placed on a servo-controlled table kept at 37° C. and the trachea was cannulated to facilitate respiration. The left femoral artery was catheterized for measurement of arterial pressure, and a femoral venous catheter was used for infusion of volume replacement. An ultrasound transit-time flow probe (1RB, Transonic, Ithaca, N.Y.) was placed around the left renal artery. Bovine serum albumin (4.7 g/dl of saline solution) was infused initially at 50 μl/min to replace surgical losses, and then at 10 μl/min for maintenance. Arterial pressure was measured via a pressure transducer (Statham P23 DB); RBF was measured by a flowmeter (T 420, low-pass filter, 40 Hz, Transonic). RBF values were controlled for zero offset determined at the end of an experiment after cardiac arrest. Data were recorded, stored, and analyzed using a DataTranslation analog-to-digital converter and the IOX software (EMKA Technologies, Paris, France).

[4] = test system: CD3+ lymphocytes in renal cortex; assay: Immunohistochemistry for CD3 in kidney of L-NAME rat model; conditions: rats, after 6 and 10 weeks LNAME treatment
Procedure: as §1, with “[…] Quantification of CD3-positive cells was” for “Others animals received Losartan during 4 weeks as additional control group (LOS group, n=3). All protocols and treatments were”, “using Olympus analysis software.” for “with the approval of the French government ethics committee. Urine samples were collected for a 4-h period. Urinary protein concentration was normalized to creatinine concentration, and values were expressed as grams protein per millimole creatinine. Blood samples were withdrawn on the last day of the study, and plasma creatinine (nmol/l) was measured by automated Jaffe's method.”

[5] = all losartan-treated groups compared to L-NAME 6w and 10w groups

| Compound | periostin expression in renal cortex ([1]; L-NAME+losartan 4 weeks, NOREG group) | periostin mRNA and protein expression in renal cortex ([1]; L-NAME+losartan 4 weeks, REG group) | vimentin mRNA expression in renal cortex ([1]; after initiation of losartan in L-NAME rats, irrespective of the REG/NOREG group) | creatininemia ([2]; after 4 weeks Losartan (30 mg/kg/day orally)+LNAME, "No Regression" (NOREG) group) [µmol/L] | creatininemia ([2]; after 4 weeks Losartan (30 mg/kg/day orally)+LNAME, "Regression" (REG) group) [µmol/L] | proteinuria [2, 5] | renal hemodynamic alterations [3, 5] | periostin mRNA up-regulation in kidney (RT-qPCR) ([1]; after 6 weeks LNAME) [fold] | periostin mRNA up-regulation in kidney (RT-qPCR) ([1]; after 10 weeks LNAME) [fold] | CD3+ lymphocyte count [4] | proteinuria ([2]; rats, L-NAME, week 6) [g/mmol creatininuria] | creatininemia ([2]; rats, L-NAME, week 10) [µmol/L] | MAP (mean arterial pressure) ([3]; rats, 6 weeks treatment) [mmHg] | MAP (mean arterial pressure) ([3]; rats, 10 weeks treatment) [mmHg] | renal blood flow ([3]; rats, from 6 weeks LNAME treatment onwards) |
| --- | --- | --- | --- | --- | --- | --- | --- | --- | --- | --- | --- | --- | --- | --- | --- |
| CCCCc1nc(Cl)c(CO)n1Cc1ccc(-c2ccccc2-c2nn[nH]n2)cc1 [Losartan] | persistent increase | significantly blunted | sharp decrease | 76 ± 3 | 50 ± 2 | ameliorated | ameliorated |  |  |  |  |  |  |  |  |
| COC(=O)[C@@H](N)CCCNC(=N)N[N+](=O)[O-] [LNAME, L-NAME] |  |  |  |  |  |  |  | 13 | 18 | strongly increased | 1.3±0.2 | 100 ± 14 | 211±7 | 212±5 | striking reduction |
